Measured values as given in patent US10556854B2, “Bacterial efflux pump inhibitors” (RUTGERS, THE STATE UNIVERSITY OF NEW JERSEY, priority 2016, dated 2020).
Where a name gives a salt, the structure may show the parent alone.

Legend:
P. aeruginosa = experiment: MIC-based assay for potentiation of antibiotics that are known efflux pump substrates (Test A), P. aeruginosa; format: cell-based; settings: fold lowering of MIC of antibiotic (e.g., clarithromycin and levofloxacin) with EPI compound at 1.6 to 12.5 μg/mL; Pseudomonas aeruginosa ATCC 27853
Source text: (§1) The ability of a compound disclosed herein to inhibit a bacterial efflux pump can be determined using a method like Test A or Test B as described in Example 13 and as shown in Table 1.
(§2) Test A. Minimum Inhibitory Concentration (MIC)-Based Assay for Potentiation of Antibiotics that are Known Efflux Pump Substrates:
(§3) MIC-based assays were used to evaluate the impact of potential efflux pump inhibiting (EPI) compounds on the MICs of antibiotics (e.g., clarithromycin and levofloxacin) known to be substrates for Gram-negative bacterial efflux pumps. The assays were conducted in accordance with Clinical and Laboratory Standards Institute (CLSI) guidelines for broth microdilution, with the modification that assays were conducted in the presence and absence of the test EPI compounds. When present, the EPI compounds were added to cation-adjusted Mueller-Hinton (CAMH) broth (Becton, Dickinson and Co., Franklin Lakes, N.J.) at a final concentration in the range of 1.6 to 12.5 μg/mL.
(§4) Log-phase Gram-negative bacteria were added to 96-well microtiter plates (at 5×10^5 colony forming units (CFU) per mL) containing two-fold serial dilutions of antibiotic in CAMH broth either in the absence or presence of the test EPI compounds. In all assays, each serial dilution of antibiotic was present in duplicate. The final volume in each well was 0.1 mL, and the microtiter plates were incubated aerobically for 24 hours at 37° C. Bacterial growth was then monitored by measuring the optical density (OD) at 600 nm using a VersaMax® plate reader (Molecular Devices, Inc., Sunnyvale, Calif.), with the MIC being defined as the lowest compound concentration at which growth was ≥90% inhibited compared to antibiotic-free control. The following Gram-negative bacterial strains were included in these assays: • Escherichia coli ATCC 25922 • Klebsiella pneumoniae ATCC 13883 and ATCC 10031 • Pseudomonas aeruginosa ATCC 27853. Test B. Fluorescence-Based Cellular Assay for Efflux Inhibition: […]

E. coli = experiment: MIC-based assay for potentiation of antibiotics that are known efflux pump substrates (Test A), E. coli; format: cell-based; settings: fold lowering of MIC of antibiotic (e.g., clarithromycin and levofloxacin) with EPI compound at 1.6 to 12.5 μg/mL; Escherichia coli ATCC 25922
Source text: as §1, §2, §3, §4

| SMILES | Active in P. aeruginosa (P. aeruginosa) [x] | Active in E. coli (E. coli) [x] |
| --- | --- | --- |
| NC[C@@H](N)CCCNC(CCc1ccccc1)CCc1ccccc1 [Example 2, (S)—N^5-(1,5-diphenylpentan-3-yl)pentane-1,2,5-triamine 3 TFA] | ≥4 | ≥16 |
| NC[C@@H](N)CCCNCC(CCc1ccccc1)CCc1ccccc1 [Example 8, (S)—N^5-(2-phenethyl-4-phenylbutyl)pentane-1,2,5-triaminium 2,2,2-trifluoroacetate] | ≥32 | ≥32 |
| CC(C)C(N)CC[C@H](N)CNCC(CCc1ccccc1)CCc1ccccc1 (stereo partly shown) [Example 9] | <2 | ≥128 |
| NCC[C@H](N)CNC(CCc1ccccc1)CCc1ccccc1 [Example 3, (S)—N^1-(1,5-diphenylpentan-3-yl)butane-1,2,4-triamine 3TFA] | ≥2 | ≥4 |
| NCC[C@H](N)CCNC(CCc1ccccc1)CCc1ccccc1 [Example 5, (S)—N^1-(1,5-Diphenylpentan-3-yl)pentane-1,3,5-triamine 3 TFA] | ≥16 | ≥32 |
| NCCC[C@H](N)CNCC(CCc1ccccc1)CCc1ccccc1 [Example 7, (S)—N^1-(2-phenethyl-4-phenylbutyl)pentane-1,2,5-triamine 3TFA] | ≥32 | ≥32 |
| CC(C)C(N)CC[C@H](N)CNC(CCc1ccccc1)CCc1ccccc1.Cl.Cl.Cl (stereo partly drawn) [Example 10, (2S)—N^1-(1,5-diphenylpentan-3-yl)-6-methylheptane-1,2,5-triaminium chloride] | <2 | ≥256 |
| NC[C@@H](N)CCNC(CCc1ccccc1)CCc1ccccc1 [Example 4, (S)—N^4-(1,5-diphenylpentan-3-yl)butane-1,2,4-triamine 3 TFA] | ≥2 | ≥2 |
| NCCC[C@H](N)CNC(CCc1ccccc1)CCc1ccccc1 [Example 1, (S)—N^1-(1,5-Diphenylpentan-3-yl)pentane-1,2,5-triamine 3 TFA] | <2 | ≥8 |
| NCC(N)COCC(CCc1ccccc1)CCc1ccccc1 (stereo not shown) [Example 12, 3-(2-phenethyl-4-phenylbutoxy)propane-1,2-diamine] | <2 | 8 |
| NCC(N)COC(CCc1ccccc1)CCc1ccccc1 (stereo not shown) [Example 11, 3-((1,5-diphenylpentan-3-yl)oxy)propane-1,2-diamine] | <2 | <2 |
